Assay results reported in patent US10266548B2, “Substituted benzylindazoles for use as Bub1 kinase inhibitors in the treatment of hyperproliferative diseases” (Bayer Intellectual Property GmbH, priority 2011, dated 2019).
Where a name gives a salt, the structure may show the parent alone.

system: HeLa cells; test: Proliferation assay (HeLa cell line); assay type: cell-based; details: 4 days, crystal violet, read-out: Biological Assay 2: Proliferation assay (HeLa cell line) median IC50
Protocol: Cultivated tumor cells (cells were ordered from ATCC, except HeLa-MaTu and HeLa-MaTu-ADR, which were ordered from EPO-GmbH, Berlin) were plated at a density of 1000 to 5000 cells/well, depending on the growth rate of the respective cell line, in a 96-well multititer plate in 200 μL of their respective growth medium supplemented 10% fetal calf serum. After 24 hours, the cells of one plate (zero-point plate) were stained with crystal violet (see below), while the medium of the other plates was replaced by fresh culture medium (200 μl), to which the test substances were added in various concentrations (0 μM, as well as in the range of 0.001-10 μM; the final concentration of the solvent dimethyl sulfoxide was 0.5%). The cells were incubated for 4 days in the presence of test substances. Cell proliferation was determined by staining the cells with crystal violet: the cells were fixed by adding 20 μl/measuring point of an 11% glutaric aldehyde solution for 15 minutes at room temperature. After three washing cycles of the fixed cells with water, the plates were dried at room temperature. The cells were stained by adding 100 μl/measuring point of a 0.1% crystal violet solution (pH 3.0). After three washing cycles of the stained cells with water, the plates were dried at room temperature. The dye was dissolved by adding 100 μl/measuring point of a 10% acetic acid solution. […] The change of cell number, in percent, was calculated by normalization of the measured values to the aborbtion values of the zero-point plate (=0%) and the absorbtion of the untreated (0 μm) cells (=100%). The IC50 values were determined by means of a 4 parameter fit using the company's own software.

Row | IC50 [nM] | SMILES
1 | 3300 | CCOc1cc(F)c(Cn2nc(-c3ncc(OCC[S+](C)[O-])c(Nc4ccncc4)n3)c3ccccc32)c(F)c1 (single isomer, unassigned) [Example 36-1, 2-[1-(4-ethoxy-2,6-difluorobenzyl)-1H-indazol-3-yl]-5-[2-(methylsulfinyl)ethoxy]-N-(pyridin-4-yl)pyrimidin-4-amine]
2 | 440 | CCOc1cc(F)c(Cn2nc(-c3ncc(OCC[S+](C)[O-])c(Nc4ccncc4)n3)c3ccccc32)c(F)c1 (single isomer, unassigned) [Example 36-2, 2-[1-(4-ethoxy-2,6-difluorobenzyl)-1H-indazol-3-yl]-5-[2-(methylsulfinyl)ethoxy]-N-(pyridin-4-yl)pyrimidin-4-amine]
3 | 430 | CCOc1cc(F)c(Cn2nc(-c3ncc(OCC[S+](C)[O-])c(Nc4ccncc4)n3)c3ccccc32)c(F)c1 (single isomer, unassigned) [Example 36-3, 2-[1-(4-ethoxy-2,6-difluorobenzyl)-1H-indazol-3-yl]-5-[2-(methylsulfinyl)ethoxy]-N-(pyridin-4-yl)pyrimidin-4-amine]

same assay, conditions: Homo sapiens, 96 h, 4 days, crystal violet, read-out: Biological Assay 2: Proliferation assay (HeLa cell line) median IC50

Row | SMILES | IC50 [nM]
4 | COc1cnc(-c2nn(Cc3c(Cl)ccc(OC)c3F)c3ccccc23)nc1Nc1ccncc1 [Example 2-2-1, 2-[1-(6-chloro-2-fluoro-3-methoxybenzyl)-1H-indazol-3-yl]-5-methoxy-N-(pyridin-4-yl)pyrimidin-4-amine] | 3400
5 | CCOc1cc(F)c(Cn2nc(-c3ncc(OCC(=O)N4CC(F)(F)C4)c(Nc4ccncc4)n3)c3ccccc32)c(F)c1 [Example 4-15, 1-(3,3-difluoroazetidin-1-yl)-2-({2-[1-(4-ethoxy-2,6-difluorobenzyl)-1H-indazol-3-yl]-4-(pyridin-4-ylamino)pyrimidin-5-yl}oxy)ethanone] | 3900

The next lines start with the values.

Row | IC50 [nM] | SMILES
6 | 3800 | COc1cnc(-c2nn(Cc3c(Cl)ccc(C)c3F)c3ccccc23)nc1Nc1ccncc1 [Example 2-1-1, 2-[1-(6-chloro-2-fluoro-3-methylbenzyl)-1H-indazol-3-yl]-5-methoxy-N-(pyridin-4-yl)pyrimidin-4-amine]
7 | 3000 | COc1cnc(-c2nn(Cc3cc(C)c(C)cc3Cl)c3ccccc23)nc1Nc1ccncc1 [Example 2-3-1, 2-[1-(2-chloro-4,5-dimethylbenzyl)-1H-indazol-3-yl]-5-methoxy-N-(pyridin-4-yl)pyrimidin-4-amine]
8 | 9000 | CCOc1cc(F)c(Cn2nc(-c3ncc(OCCN4CCOCC4)c(Nc4ccncc4)n3)c3ccccc32)c(F)c1 [Example 4-12, 2-[1-(4-ethoxy-2,6-difluorobenzyl)-1H-indazol-3-yl]-5-[2-(morpholin-4-yl)ethoxy]-N-(pyridin-4-yl)pyrimidin-4-amine]
9 | 4400 | CCOc1cc(F)c(Cn2nc(-c3ncc(OCCSC)c(Nc4ccncc4)n3)c3ccccc32)c(F)c1 [Example 4-16, 2-[1-(4-ethoxy-2,6-difluorobenzyl)-1H-indazol-3-yl]-5-[2-(methylsulfanyl)ethoxy]-N-(pyridin-4-yl)pyrimidin-4-amine]

same assay, conditions: Homo sapiens, 96 h, read-out: Biological Assay 2: Proliferation assay (HeLa cell line) median IC50

Row | SMILES | IC50 [nM]
10 | CCOc1cc(F)c(Cn2nc(-c3ncc(OCCOCCO)c(Nc4ccncc4)n3)c3ccccc32)c(F)c1 [Example 4-17, 2-[2-({2-[1-(4-ethoxy-2,6-difluorobenzyl)-1H-indazol-3-yl]-4-(pyridin-4-ylamino)pyrimidin-5-yl}oxy)ethoxy] ethanol] | 4800
11 | CCOc1cc(F)c(Cn2nc(-c3ncc(OCCN)c(Nc4ccncc4)n3)c3ccccc32)c(F)c1 [Example 38-1, 5-(2-aminoethoxy)-2-[1-(4-ethoxy-2,6-difluorobenzyl)-1H-indazol-3-yl]-N-(pyridin-4-yl)pyrimidin-4-amine] | 1400

same assay, conditions: read-out: Biological Assay 2: Proliferation assay (HeLa cell line) median IC50, 4 days, crystal violet

Row | SMILES | IC50 [nM]
12 | OC[C@@H](O)COc1cnc(-c2nn(Cc3ccccc3F)c3ccccc23)nc1Nc1ccncc1 [Example 15-6, (2R)-3-({2-[1-(2-fluorobenzyl)-1H-indazol-3-yl]-4-(pyridin-4-ylamino)pyrimidin-5-yl}oxy)propane-1,2-diol hydrochloride (1:1)] | ≥ 10000

biological target: catalytic domain of human Bub1 (amino acids 704-1085) (Homo sapiens (Human), UniProt O43683); test: Bub1 kinase assay (TR-FRET); assay type: biochemical; details: 10 μM ATP, 1 μM peptide substrate; read-out: Biological Assay 1: Bub1 kinase assay median IC50
Sequence (O43683 704-1085): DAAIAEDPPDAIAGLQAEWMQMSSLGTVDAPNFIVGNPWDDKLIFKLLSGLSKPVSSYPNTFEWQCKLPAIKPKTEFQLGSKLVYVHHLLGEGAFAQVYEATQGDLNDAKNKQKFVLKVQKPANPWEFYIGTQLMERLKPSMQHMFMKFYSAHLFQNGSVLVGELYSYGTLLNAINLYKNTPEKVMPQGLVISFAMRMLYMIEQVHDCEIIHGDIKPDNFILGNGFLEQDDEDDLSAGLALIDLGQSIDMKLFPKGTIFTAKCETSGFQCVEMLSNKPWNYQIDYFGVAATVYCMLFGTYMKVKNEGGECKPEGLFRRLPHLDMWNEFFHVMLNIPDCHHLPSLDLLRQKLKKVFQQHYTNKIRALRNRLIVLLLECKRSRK
Protocol: To this end, 100-fold concentrated compound solutions (in DMSO) were previously prepared by serial dilution (1:3.4) of 2 mM stocks in a clear low volume 384-well source microtiter plate (Greiner Bio-One, Frickenhausen, Germany), from which 50 nl of compounds were transferred into a black low volume test microtiter plate from the same supplier. […] The resulting mixture (5 μl final volume) was incubated at 22° C. during 60 min., and the reaction was stopped by the addition of 5 μl of an aqueous EDTA-solution (50 mM EDTA, in 100 mM HEPES pH 7.5 and 0.2% (w/v) bovine serum albumin) which also contained the TR-FRET detection reagents (0.2 μM streptavidin-XL665 [Cisbio Bioassays, Codolet, France] and 1 nM anti-phosho-Serine antibody [Merck Millipore, cat. #35-001] and 0.4 nM LANCE EU-W1024 labeled anti-mouse IgG antibody [Perkin-Elmer, product no. AD0077, alternatively a Terbium-cryptate-labeled anti-mouse IgG antibody from Cisbio Bioassays can be used]). The stopped reaction mixture was further incubated 1 h at 22° C. in order to allow the formation of complexes between peptides and detection reagents. Subsequently, the amount of product was evaluated by measurement of the resonance energy transfer from the Eu-chelate-antlbody complex recognizing the Phosphoserlne residue to the streptavidin-XL665 bound to the biotin moiety of the peptide. […] IC50 values were calculated by fitting the normalized inhibition data to a 4-parameter logistic equation (Minimum, Maximum, IC50, Hill; Y=Max+(Min−Max)/(1+(X/IC50)Hill)) using a Bayer-proprietary analysis software.

Row | SMILES | IC50 [nM]
13 | COc1cnc(-c2nn(Cc3c(Cl)ccc(OC)c3F)c3ccccc23)nc1Nc1ccncc1 [Example 2-2-1, 2-[1-(6-chloro-2-fluoro-3-methoxybenzyl)-1H-indazol-3-yl]-5-methoxy-N-(pyridin-4-yl)pyrimidin-4-amine] | 2.6
14 | COc1cnc(-c2nn(Cc3ccc(C(C)(C)O)cc3Cl)c3ccccc23)nc1Nc1ccncc1 [Example 9-1, 2-[3-chloro-4-({3-[5-methoxy-4-(pyridin-4-ylamino)pyrimidin-2-yl]-1H-indazol-1-yl}methyl)phenyl]propan-2-ol] | 9.8
15 | COc1cnc(-c2nn(Cc3c(Cl)ccc(C(=O)O)c3Cl)c3ccccc23)nc1Nc1ccncc1 [Example 19-1, 2,4-dichloro-3-({3-[5-methoxy-4-(pyridin-4-ylamino)pyrimidin-2-yl]-1H-indazol-1-yl}methyl)benzoic acid] | 20000
16 | CNC(=O)c1cc(F)c(Cn2nc(-c3ncc(OC)c(Nc4ccncc4)n3)c3ccccc32)c(F)c1 [Example 20-6, 3,5-difluoro-4-({3-[5-methoxy-4-(pyridin-4-yla-mino)pyrimidin-2-yl]-1H-indazol-1-yl}methyl)-N-methylbenzamide] | 6700
17 | OCC1COc2cnc(-c3nn(Cc4ccccc4F)c4ccccc34)nc2N1c1ccncc1 (centres unmarked) [Example 22-1, {2-[1-(2-fluorobenzyl)-1H-indazol-3-yl]-8-(pyridin-4-yl)-7,8-dihydro-6H-pyrimido[5,4-b][1,4]oxazin-7-yl}methanol] | 770
18 | COC(=O)c1cnccc1Nc1nc(-c2nn(Cc3ccccc3F)c3ccccc23)ncc1OC [Example 24-2, methyl 4-({2-[1-(2-fluorobenzyl)-1H-indazol-3-yl]-5-methoxypyrimidin-4-yl}amino)pyridine-3-carboxylate] | 20000
19 | COc1cnc(-c2nn(Cc3ccccc3F)c3ccccc23)nc1N(c1ccncc1)c1ccncc1 [Example 24-4] | 4280
20 | CCOc1cc(F)c(Cn2nc(-c3ncc(OC)c(Nc4ccncc4C#N)n3)c3ccccc32)c(F)c1 [Example 24-5, 4-({2-[1-(4-ethoxy-2,6-difluorobenzyl)-1H-indazol-3-yl]-5-methoxypyrimidin-4-yl}amino)pyridine-3-carbonitrile] | 11
21 | N#Cc1cnccc1Nc1nc(-c2nn(Cc3ccccc3F)c3ccccc23)ncc1Oc1ccncc1C#N [Example 26-2] | 2400
22 | N#Cc1cnc(-c2nn(Cc3ccccc3F)c3ccccc23)nc1Nc1ccncc1 [Example 31-1, 2-[1-(2-fluorobenzyl)-1H-indazol-3-yl]-4-(pyridin-4-ylamino)pyrimidine-5-carbonitrile] | 4700
23 | COc1cnc(-c2nn(Cc3c(Cl)ccc(N)c3Cl)c3ccccc23)nc1Nc1ccncc1 [Example 40-1, 2-[1-(3-amino-2,6-dichlorobenzyl)-1H-indazol-3-yl]-5-methoxy-N-(pyridin-4-yl)pyrimidin-4-amine] | 39

Next, values leading:

Row | IC50 [nM] | SMILES
24 | 2.6 | COc1cnc(-c2nn(Cc3c(Cl)ccc(C)c3F)c3ccccc23)nc1Nc1ccncc1 [Example 2-1-1, 2-[1-(6-chloro-2-fluoro-3-methylbenzyl)-1H-indazol-3-yl]-5-methoxy-N-(pyridin-4-yl)pyrimidin-4-amine]
25 | 4.4 | COc1cnc(-c2nn(Cc3cc(C)c(C)cc3Cl)c3ccccc23)nc1Nc1ccncc1 [Example 2-3-1, 2-[1-(2-chloro-4,5-dimethylbenzyl)-1H-indazol-3-yl]-5-methoxy-N-(pyridin-4-yl)pyrimidin-4-amine]
26 | 940 | CCOc1cc(O)c(Cn2nc(-c3ncc(OC)c(Nc4cc(C)nc(C)c4)n3)c3ccccc32)c(F)c1 [Example 24-6, 2-[(3-[4-[(2,6-dimethylpyridin-4-yl)amino]-5-methoxypyrimidin-2-yl}-1H-indazol-1-yl)methyl]-5-ethoxy-3-fluorophenol]
27 | 3700 | COc1cnc(-c2nn(Cc3ccc(C(=O)O)cc3Cl)c3ccccc23)nc1Nc1ccncc1 [Example 28-1, 3-chloro-4-({3-[5-methoxy-4-(pyridin-4-ylamino)pyrimidin-2-yl]-1H-indazol-1-yl}methyl)benzoic acid]
28 | 120 | COc1ccc(Cn2nc(-c3ncc(OC)c(Nc4ccnc(C)c4)n3)c3ccccc32)cc1 [Example 34-4, 5-methoxy-2-[1-(4-methoxybenzyl)-1H-indazol-3-yl)-N-(2-methylpyridin-4-yl)pyrimidin-4-amine]
29 | 1300 | CCOc1cc(F)c(Cn2nc(-c3nccc(N(c4ccncc4)C(F)F)n3)c3ccccc32)c(F)c1 [Example 35-1, N-(difluoromethyl)-2-[1-(4-ethoxy-2,6-difluorobenzyl)-1H-indazol-3-yl]-N-(pyridin-4-yl)pyrimidin-4-amine]
